Where two headings read alike, the source gives them in different places.
appearance of mixture (0.67 weight percent in water): did not dissolve | appearance of mixture (2 weight percent mixture in water): did not dissolve | appearance of mixture (10 weight percent in water (no ethanol)): not homogeneous | appearance of mixture (14.72 weight percent in ethanol 34.40 / water 50.88 weight percent, room temperature): clear solution | appearance of mixture (20 weight percent in water (no ethanol)): not homogeneous
Compound: C=C(C)C(=O)OCCOP(=O)(O)OCCOC(=O)C(=C)C [Bis-MEP, Bis-[2-(methacryloyloxy)ethyl]phosphate]
